Tested on: MDA-MB-231 cells
Assay: Effect of Taxol on HFFU-induced Ca2+ elevations (cell response index, CRI), live-cell calcium fluorescence imaging
Type: cell-based, human
Settings: for normalized CRI (cell response index): 24 h treatment, HFFU stimulation, n=10, normalized to 0 nM = 1.0
Protocol: In order to perform live-cell fluorescence imaging of target cells stimulated by HFFU, a HFFU stimulation system was added to an inverted epifluorescence microscope (Olympus 1X70). In order to generate the highly focused ultrasound beam for single cell stimulation, a 200-MHz press-focused LiNbO3 transducer (fc: 200 MHz and bandwidth: 29%) was used. The transducer was constructed with conventional transducer fabrication procedures (Lam et al., 2013). The focal length of the transducer was 1.3 mm and the f-number (F#) was 1.6. The measured beam width of the highly focused ultrasound beam was 17 μm, which was close to the predicted value of 12 μm (=focal length×wavelength) and approximately the size of a breast cancer cell. In order to generate the 200-MHz ultrasound beam, 200-MHz sinusoidal bursts from a function generator (Stanford Research Systems, Sunnyvale, Calif.) fed into a 50-dB power amplifier (525LA, ENI, USA) were used to drive the transducer. The resultant peak-to-peak (Vpp) voltages of the bursts were adjusted to 4, 8, 16, and 32 V. The duty factor was tuned to 1%, and the pulse repetition frequency (PRF) was 1 kHz.
Live-cell fluorescence imaging was carried out on the epifluorescence microscope to monitor the cytoplasmic Ca^2+ elevations elicited by HFFU in individual MDA-MB-231, MCF-7, SKBR3, and BT-474 cells labeled with Fluo-4 AM. Light from a mercury lamp was delivered to the cells for excitation after passing through an electronic shutter, an excitation bandpass filter (488±20 nm), a dichroic mirror (cut-off wavelength: 500 nm), and a 20×objective. Fluorescence emitted from the cells was then collected by the same objective and recorded using a high-sensitivity CCD camera (ORCA-Flash2.8, Hamamatsu, Japan) after passing through an emission bandpass filter (530±20 nm).
Fluo-4 AM was used for live-cell calcium fluorescence imaging. 10^5 cells were plated on 35 mm Petri dishes and incubated in the complete medium at 37° C. for 36 h before […] Fluo-4 AM solution, diluted with the external buffer solution, was added to the dishes. After the cells were incubated at room temperature for 30 min, the cells were thoroughly washed with external buffer solution and then time-lapse fluorescence imaging was initiated after the target cells were positioned at the beam focus. Fluorescence images were acquired at 1 Hz for t=300 s (exposure time: 300 ms), as the HFFU was switched on and off at t=50 s and t=200 s, respectively.
The program was written to obtain the mean normalized maximum calcium elevation value and a cell responding ratio from segmented images of target cells, semi-automatically. A cell responding ratio=the number of cells responding to HFFU/the number of total cells subjected to HFFU. More specifically, after fluorescence images of cells acquired at different time-points (0-300 s, step: 1 s) were averaged, the target cell receiving HFFU in the averaged image was selected and segmented by Otsu's method (Otsu, 1979), followed by the calculation of mean fluorescence intensities in the segmented regions of each image obtained at the indicated time-points. Temporal changes of the mean fluorescence in the target cell were then analyzed to determine whether calcium elevations were elicited by HFFU in the cell. The calcium elevation was here measured as the increase in the fluorescence intensity. […]

SMILES: CC(=O)O[C@H]1C(=O)[C@@]2(C)[C@H]([C@H](OC(=O)c3ccccc3)[C@]3(O)C[C@H](OC(=O)[C@H](O)[C@@H](NC(=O)c4ccccc4)c4ccccc4)C(C)=C1C3(C)C)[C@]1(OC(C)=O)CO[C@@H]1C[C@@H]2O [Taxol]
- reduction of the CRI relative to the untreated cells (1 nM Taxol): −50%
- normalized CRI (cell response index) (1 nM Taxol): 0.52
- normalized CRI (cell response index) (10 nM Taxol): 0.29
- CRI remaining (reduced to) (100 nM Taxol): 0%
- normalized CRI (cell response index) (100 nM Taxol): 0
